Laboratory results from ChEMBL document CHEMBL1148858, “Discovery of novel benzimidazolones as potent non-nucleoside reverse transcriptase inhibitors active against wild-type and mutant HIV-1 strains” (Bioorg Med Chem Lett, 2007).

Experiments:
[1] = test system: Human immunodeficiency virus 1; test: Antiviral activity against HIV1 assessed as reduction of virus-induced cytopathic effect in MT4 cells; assay type: functional, organism-based; settings: Human immunodeficiency virus 1, MT4
[2] = test system: Human immunodeficiency virus 1; test: Antiviral activity against HIV1 with reverse transcriptase E138K mutation in CEM cells assessed as inhibition of virus-induced giant cell formation; assay type: functional, organism-based; settings: Human immunodeficiency virus 1, CCRF-CEM
[3] = Selectivity index, ratio of CC50 for human MT4 cells to EC50 for HIV1; assay type: functional
[4] = Cytotoxicity against MT4 cells assessed as reduction of cell viability; assay type: cell-based; settings: human
[5] = test system: Human immunodeficiency virus 1; test: Antiviral activity against HIV1 with reverse transcriptase L100I mutation in CEM cells assessed as inhibition of virus-induced giant cell formation; assay type: functional, organism-based; settings: Human immunodeficiency virus 1, CCRF-CEM
[6] = test system: Human immunodeficiency virus 1; test: Antiviral activity against HIV1 with reverse transcriptase Y181C mutation in CEM cells assessed as inhibition of virus-induced giant cell formation; assay type: functional, organism-based; settings: Human immunodeficiency virus 1, CCRF-CEM
[7] = test system: Human immunodeficiency virus 1; test: Antiviral activity against HIV1 with reverse transcriptase Y188H mutation in CEM cells assessed as inhibition of virus-induced giant cell formation; assay type: functional, organism-based; settings: Human immunodeficiency virus 1, CCRF-CEM
[8] = test system: Human immunodeficiency virus 1; test: Antiviral activity against HIV1 with reverse transcriptase K103N mutation in CEM cells assessed as inhibition of virus-induced giant cell formation; assay type: functional, organism-based; settings: Human immunodeficiency virus 1, CCRF-CEM
[9] = test system: Human immunodeficiency virus 1; test: Antiviral activity against HIV1 3B in CEM cells assessed as inhibition of virus-induced giant cell formation; assay type: functional, organism-based; settings: Human immunodeficiency virus 1, 3B, CCRF-CEM
[10] = biological target: Human immunodeficiency virus type 1 reverse transcriptase (Human immunodeficiency virus 1, UniProt Q72547); test: Inhibition of RNA dependent DNA polymerase activity of HIV1 recombinant reverse transcriptase

Compound: Cc1cc(C)cc(S(=O)(=O)n2c(=O)[nH]c3ccc(Cl)cc32)c1
- EC50 [1]: 2 nM
- EC50 [2]: 15 nM
- Ratio CC50/EC50 [3]: 17846
- CC50 [4]: 39000 nM
- EC50 [5]: 6 nM
- EC50 [6]: 160 nM
- EC50 [7]: 1500 nM
- EC50 [8]: 29 nM
- EC50 [9]: 3 nM
- IC50 [10]: 5 nM

Compound: O=c1[nH]c2ccc(Cl)cc2n1Cc1c(F)cccc1F
- EC50 [1]: 240 nM
- EC50 [2]: 2500 nM
- Ratio CC50/EC50 [3]: >1766
- CC50 [4]: > 424000 nM
- EC50 [5]: 3100 nM
- EC50 [6]: > 50000 nM
- EC50 [7]: > 50000 nM
- EC50 [8]: > 50000 nM
- EC50 [9]: 374 nM
- IC50 [10]: 700 nM

Compound: O=C1Nc2ccc(Cl)cc2[C@@](C#CC2CC2)(C(F)(F)F)O1 [EFAVIRENZ]
- EC50 [2]: 9.6 nM
- CC50 [4]: > 6000 nM
- EC50 [6]: 6.1 nM
- EC50 [7]: 49 nM
- EC50 [8]: 218 nM

Compound: Cc1ccnc2c1NC(=O)c1cccnc1N2C1CC1 [NEVIRAPINE]
- EC50 [1]: 73 nM
- EC50 [2]: 207 nM
- CC50 [4]: > 15000 nM
- EC50 [5]: 199 nM
- EC50 [6]: 2500 nM
- EC50 [7]: > 75000 nM
- EC50 [8]: 1300 nM
- EC50 [9]: 30 nM

Compound: Cc1cc(C)cc(Cn2c(=O)[nH]c3ccc(Cl)cc32)c1
- EC50 [1]: 32 nM
- EC50 [2]: 665 nM
- Ratio CC50/EC50 [3]: 281
- CC50 [4]: 8900 nM
- EC50 [5]: 49 nM
- EC50 [6]: > 3000 nM
- EC50 [7]: > 3000 nM
- EC50 [8]: ≥ 3000 nM
- EC50 [9]: 81 nM
- IC50 [10]: 150 nM
